Experiment [1] relates to LLA (long loop ATP hairpin aptamer) (DNA, aptamer) CACCTGGGGGAGTATTGCGGAGGAAGGTTTTTTTTTTTTTTTTTTTTTTTTTTTTTTTTCCAGGTGTT
Put plainly: surface plasmon field-enhanced fluorescence titration. To be noted: 6 mM MgCl2; 10 mM Tris pH 7.4 (HAB); aptamer immobilised on gold; up to 12 mM guanosine.

The test system is the same in experiment [2]. Put plainly: surface plasmon field-enhanced fluorescence titration, Langmuir isotherm. To be noted: 6 mM MgCl2, 10 mM Tris pH 7.4 (HAB).
Experiment [3] relates to SLA (short loop ATP hairpin aptamer) (DNA, aptamer, PEG6 spacer between 29 and 30) CACCTGGGGGAGTATTGCGGAGGAAGGTTCCAGGTG
The description is as above. To be noted: 6 mM MgCl2, 10 mM Tris pH 7.4 (HAB).

[4] abbreviates: aptamer immobilised, fit limited to ATP ≤2 mM, full curve deviates from Langmuir.

With `Nc1nc2c(ncn2[C@@H]2O[C@H](CO)[C@@H](O)[C@H]2O)c(=O)[nH]1`, the binding entry in experiment [1] was “no”.

On to `Nc1ncnc2c1ncn2[C@@H]1O[C@H](CO)[C@@H](O)[C@H]1O`, for which the dissociation constant Kd is recorded as 50 µM in experiment [2] (aptamer immobilised on gold) and 90 µM in experiment [3] (aptamer immobilised on gold).

Take `Nc1ncnc2c1ncn2[C@@H]1O[C@H](COP(=O)(O)OP(=O)(O)OP(=O)(O)O)[C@@H](O)[C@H]1O`: the figures for the Kd in experiment [2] (setting [4]) and in experiment [3] (setting [4]) were 120 µM and 300 µM, respectively.

The record behind these values is article PMC5537696 (2017).
